The values below come from US20250263408A1 (Uniquest Pty Ltd, priority 2022, published 2025).

SMILES strings stand for the structures.

One experiment addresses T1, Syk (Homo sapiens, UniProt P43405).
T1 construct: purchased Promega
Description: Syk Biochemical Assay (ADP-Glo luminescence). As to conditions: ATP 40 μM final, 60 minutes, read-out: SYK Biochem IC50. As to the method:
Compounds were serially diluted in 100% DMSO, prior to an intermediate dilution in water. In a low volume white 384-well Proxiplate (Perkin Elmer), 1 μL of compound (0.4% final DMSO) was added to 3 μL of 10 ng/well Syk (Promega) and 0.2 mg/mL Poly-E4Y1 substrate (Promega) in assay buffer (final 40 mM Tris-HCl pH 7.4, 20 mM MgCl2, 0.1 mg/mL BSA) for 5 minutes. The reaction was initiated by addition of 1 μL of ATP (40 μM final) and allowed to proceed for 60 minutes at room temperature. The reaction was terminated by addition of 5 μL of ADP-Glo Reagent Mix (Promega) containing 1 mM MgCl2 for 45 minutes at room temperature. 10 μL of Kinase Detection Reagent (Promega) was added and incubated for 10 minutes at room temperature, before luminescence was measured using an Ensight Multimode Plate Reader (Perkin Elmer).
(In general: In ADP-Glo the light output rises with the ADP produced.)

For another experiment, the target named is T2, Ba/F3-Syk cells (Homo sapiens, UniProt P43405).
T2 construct: fused on or other part: Possible but unprinted fusion partner: TEL (ETV6), the usual partner for Ba/F3 lines transformed by Syk; Nothing on a partner is printed
Description: Ba/F3 Proliferation Assay, Ba/F3-Syk cells (Resazurin). As to conditions: 48-hour incubation. The format is cell-based.

For experiment [1], the system named is Ba/F3-WT (wild type) cells. Description: Ba/F3 Proliferation Assay, Ba/F3-WT (wild type) cells with mIL-3 (Resazurin). The format is cell-based. The settings on record: Ba/F3-WT cells +mIL-3, 48-hour incubation. In general terms: Resazurin is reduced to fluorescent resorufin, in cell work by metabolically active cells.

Regarding `C[C@H]1CNC[C@@H](COc2nc(-c3cnn(C)c3)cc3ncccc23)O1` (relative stereo) [Compound 2.24, 7-(1-methyl-1H-pyrazol-4-yl)-5-{[(rel-2S,6S)-6-methylmorpholin-2-yl]methoxy}-1,6-naphthyridine], the IC50 (as a rule, the concentration at which inhibition is half-maximal) on Syk was found to be 0.129 µM. For the same compound, the EC50 (as a rule, the concentration at which the effect is half-maximal) at Ba/F3-Syk cells was 0.135 µM; in experiment [1] (Mus musculus, BaF3, 48 h) it was 1.5 µM.

With `C[C@@H]1CNC[C@@H](COc2nc(-c3cnn(C)c3)cc3ncccc23)O1` (relative stereo) [Compound 2.25, 7-(1-methyl-1H-pyrazol-4-yl)-5-{[(rel-2S,6R)-6-methylmorpholin-2-yl]methoxy}-1,6-naphthyridine], the IC50 on Syk was determined as 0.039 µM. For the same compound, the EC50 at Ba/F3-Syk cells amounted to 0.0621 µM; in experiment [1] (Mus musculus, BaF3, 48 h) it was 1.51 µM.

As to `C[C@H]1CO[C@H](COc2nc(-c3cnn(C)c3)cc3ncccc23)CN1` (relative stereo) [Compound 2.26, 7-(1-methyl-1H-pyrazol-4-yl)-5-{[(rel-2S,5S)-5-methylmorpholin-2-yl]methoxy}-1,6-naphthyridine], the 50% inhibitory concentration (IC50) at Syk amounted to 0.131 µM. Besides, the 50% effective concentration (EC50) at Ba/F3-Syk cells stood at 0.216 µM; in experiment [1] (Mus musculus, BaF3, 48 h) it was 1.45 µM.

Consider `C[C@@H]1CO[C@H](COc2nc(-c3cnn(C)c3)cc3ncccc23)CN1` (relative stereo) [Compound 2.27, 7-(1-methyl-1H-pyrazol-4-yl)-5-{[(rel-2S,5R)-5-methylmorpholin-2-yl]methoxy}-1,6-naphthyridine], for which the half-maximal inhibitory concentration (IC50) on Syk was 0.247 µM. The EC50 at Ba/F3-Syk cells is 0.305 µM; in experiment [1] (Mus musculus, BaF3, 48 h) it was 1.5 µM.

On to `CC(C)(C)n1cc(-c2cc3ncccc3c(OC[C@H]3OC[C@@H]4C[C@H]3N4)n2)cn1` (relative stereo) [Compound 2.106, 7-(1-tert-butyl-1H-pyrazol-4-yl)-5-{[rel-(1R,2S,5S)-3-oxa-6-azabicyclo[3.1.1]heptan-2-yl]methoxy}-1,6-naphthyridine], for which the concentration for half-maximal inhibition (IC50) at Syk came out at 0.0236 µM. Also, the concentration for a half-maximal effect (EC50) on Ba/F3-Syk cells was 0.0555 µM; in experiment [1], 0.575 µM.

On to `Cc1ccnc2cc(-c3cnn(C(C)(C)C)c3)nc(OC[C@@H]3CNCC(C)(C)O3)c12` (stereo in doubt) [Compound 14.6, 7-(1-tert-butyl-1H-pyrazol-4-yl)-5-[(6,6-dimethylmorpholin-2-yl)methoxy]-4-methyl-1,6-naphthyridine], for which the IC50 at Syk was 0.0129 µM. For the same compound, the EC50 was 0.0061 µM at Ba/F3-Syk cells and 2.67 µM in experiment [1] (Mus musculus, BaF3, 48 h).

Turning to `Cn1cc(-c2cc3ncccc3c(OCC3CNCCO3)n2)cn1` (stereo not shown) [Compound 2.1, 7-(1-methyl-1H-pyrazol-4-yl)-5-[(morpholin-2-yl)methoxy]-1,6-naphthyridine], the IC50 on Syk was 0.0508 µM. Also, the EC50 at Ba/F3-Syk cells worked out at 0.0928 µM; in experiment [1] (Mus musculus, BaF3, 48 h), 1.25 µM.

Consider `Cn1cc(-c2cc3ncccc3c(OC[C@H]3CNCCO3)n2)cn1` [Compound 2.2, 7-(1-methyl-1H-pyrazol-4-yl)-5-{[(2R)-morpholin-2-yl]methoxy}-1,6-naphthyridine], for which, on Syk, the IC50 was found to be 0.13 µM. In addition, the EC50 at Ba/F3-Syk cells was 0.355 µM; in experiment [1] (Mus musculus, BaF3, 48 h), 1.76 µM.

As for `Cn1cc(-c2cc3ncccc3c(OC[C@@H]3CNCCO3)n2)cn1` [Compound 2.3, 7-(1-methyl-1H-pyrazol-4-yl)-5-{[(2S)-morpholin-2-yl]methoxy}-1,6-naphthyridine], at Syk, the concentration for half-maximal inhibition (IC50) is 0.039 µM. The EC50 at Ba/F3-Syk cells was 0.105 µM; in experiment [1] (Mus musculus, BaF3, 48 h), 2.35 µM.

With `C[C@@H](Oc1nc(-c2cnn(C)c2)cc2ncccc12)[C@@H]1CNCCO1` [Compound 2.5, 7-(1-methyl-1H-pyrazol-4-yl)-5-[(1R)-1-[(2S)-morpholin-2-yl]ethoxy]-1,6-naphthyridine], the half-maximal inhibitory concentration (IC50) on Syk amounted to 0.0389 µM. For the same compound, the EC50 at Ba/F3-Syk cells turned out to be 0.0767 µM; in experiment [1] (Mus musculus, BaF3, 48 h), 2.54 µM.

In the case of `CCn1cc(-c2cc3ncccc3c(OC[C@@H]3CNCCO3)n2)cn1` [Compound 2.6, 7-(1-ethyl-1H-pyrazol-4-yl)-5-{[(2S)-morpholin-2-yl]methoxy}-1,6-naphthyridine], the half-inhibitory concentration (IC50) at Syk amounted to 0.0156 µM. For the same compound, the EC50 on Ba/F3-Syk cells is 0.0572 µM; in experiment [1] (Mus musculus, BaF3, 48 h) it was 1.53 µM.

`CC(C)n1cc(-c2cc3ncccc3c(OC[C@@H]3CNCCO3)n2)cn1` [Compound 2.7, 5-{[(2S)-morpholin-2-yl]methoxy}-7-[1-(propan-2-yl)-1H-pyrazol-4-yl]-1,6-naphthyridine]: the IC50 at Syk is 0.0128 µM. Besides, the EC50 on Ba/F3-Syk cells was 0.0376 µM; in experiment [1] (Mus musculus, BaF3, 48 h), 0.934 µM.

On to `COCCn1cc(-c2cc3ncccc3c(OC[C@@H]3CNCCO3)n2)cn1` [Compound 2.8, 7-[1-(2-methoxyethyl)-1H-pyrazol-4-yl]-5-{[(2S)-morpholin-2-yl]methoxy}-1,6-naphthyridine], for which the concentration for half-maximal inhibition (IC50) at Syk was determined as 0.0374 µM. Also, the EC50 on Ba/F3-Syk cells came out at 0.196 µM; in experiment [1] (Mus musculus, BaF3, 48 h) it was 1.44 µM.

Take `COCn1cc(-c2cc3ncccc3c(OC[C@@H]3CNCCO3)n2)cn1` [Compound 2.9, 7-[1-(methoxymethyl)-1H-pyrazol-4-yl]-5-{[(2S)-morpholin-2-yl]methoxy}-1,6-naphthyridine]: at Syk, the IC50 was determined as 0.0406 µM. In addition, the EC50 on Ba/F3-Syk cells was found to be 0.187 µM; in experiment [1] (Mus musculus, BaF3, 48 h), 2.36 µM.

With `CC(C)(C)n1cc(-c2cc3ncccc3c(OC[C@@H]3CNCCO3)n2)cn1` [Compound 2.10, 7-(1-tert-butyl-1H-pyrazol-4-yl)-5-{[(2S)-morpholin-2-yl]methoxy}-1,6-naphthyridine], the IC50 on Syk stood at 0.0145 µM. Also, the EC50 worked out at 0.0399 µM on Ba/F3-Syk cells and 2.78 µM in experiment [1] (Mus musculus, BaF3, 48 h).

With `c1cnc2cc(-c3cnn(C4COC4)c3)nc(OC[C@@H]3CNCCO3)c2c1` [Compound 2.11, 5-{[(2S)-morpholin-2-yl]methoxy}-7-[1-(oxetan-3-yl)-1H-pyrazol-4-yl]-1,6-naphthyridine], the 50% inhibitory concentration (IC50) at Syk was 0.0182 µM. At Ba/F3-Syk cells, this compound showed an EC50 of 0.131 µM.

Regarding `FC(F)Cn1ccc(-c2cc(OC[C@@H]3CNCCO3)c3cccnc3c2)c1` [Compound 7.2, 7-[1-(2,2-difluoroethyl)-1H-pyrrol-3-yl]-5-{[(2S)-morpholin-2-yl]methoxy}quinoline], the IC50 at Syk was 0.0101 µM. Further, the EC50 is 2.48 µM in experiment [1] and 2.11 µM in experiment [1] (Mus musculus, BaF3, 48 h).

`C[C@H](Oc1cc(-c2cnn(C(C)(C)C)c2)cc2ncccc12)[C@@H]1CNCCO1` [Compound 14.1, 7-(1-tert-butyl-1H-pyrazol-4-yl)-5-[(1S)-1-[(2S)-morpholin-2-yl]ethoxy]quinoline]: the EC50 on Ba/F3-Syk cells was 1.34 µM; in experiment [1] (Mus musculus, BaF3, 48 h), > 10 µM.

`C[C@@H](Oc1cc(-c2cnn(C(C)(C)C)c2)cc2ncccc12)[C@@H]1CNCCO1` [Compound 14.2, 7-(1-tert-butyl-1H-pyrazol-4-yl)-5-[(1R)-1-[(2S)-morpholin-2-yl]ethoxy]quinoline]: the concentration giving a half-maximal response (EC50) on Ba/F3-Syk cells is 0.0818 µM; in experiment [1] (Mus musculus, BaF3, 48 h) it was 1.88 µM.

Regarding `FC(F)c1cc(-c2cc(OC[C@@H]3CNCCO3)c3cccnc3c2)cs1` [Compound 14.3, 7-[5-(difluoromethyl)thiophen-3-yl]-5-{[(2S)-morpholin-2-yl]methoxy}quinoline], the EC50 on Ba/F3-Syk cells came to 0.176 µM; in experiment [1] (Mus musculus, BaF3, 48 h), 1.93 µM.

In the case of `FC(F)c1csc(-c2cc(OC[C@@H]3CNCCO3)c3cccnc3c2)c1` [Compound 14.4, 7-[4-(difluoromethyl)thiophen-2-yl]-5-{[(2S)-morpholin-2-yl]methoxy}quinoline], the concentration for a half-maximal effect (EC50) stood at 0.196 µM at Ba/F3-Syk cells and 1.9 µM in experiment [1] (Mus musculus, BaF3, 48 h).

Take `CC(C)(C)c1ccc(-c2cc(OC[C@@H]3CNCCO3)c3cccnc3c2)s1` [Compound 14.5, 7-(5-tert-butylthiophen-2-yl)-5-{[(2S)-morpholin-2-yl]methoxy}quinoline]: the 50% effective concentration (EC50) on Ba/F3-Syk cells was determined as 0.428 µM; in experiment [1] (Mus musculus, BaF3, 48 h), 1.2 µM.

`Cc1ccnc2cc(-c3cnn(C(C)(C)C)c3)cc(OC[C@@H]3CNCC(C)(C)O3)c12` [Compound 14.9, 7-(1-tert-butyl-1H-pyrazol-4-yl)-5-{[(2S)-6,6-dimethylmorpholin-2-yl]methoxy}-4-methylquinoline]: the concentration giving a half-maximal response (EC50) at Ba/F3-Syk cells amounted to 0.0059 µM; in experiment [1] (Mus musculus, BaF3, 48 h), 1.22 µM.

Regarding `Cc1cnc2cc(-c3cnn(C(C)C)c3)nc(OC[C@@H]3CNCC(C)(C)O3)c2c1` [Compound 14.10, 5-{[(2S)-6,6-dimethylmorpholin-2-yl]methoxy}-3-methyl-7-[1-(propan-2-yl)-1H-pyrazol-4-yl]-1,6-naphthyridine], the 50% effective concentration (EC50) is 0.0449 µM at Ba/F3-Syk cells and 1.07 µM in experiment [1] (Mus musculus, BaF3, 48 h).

On to `COCCn1ccc(-c2cc(OC[C@@H]3CNCC(C)(C)O3)c3c(C)ccnc3c2)c1` [Compound 14.11, 5-{[(2S)-6,6-dimethylmorpholin-2-yl]methoxy}-7-[1-(2-methoxyethyl)-1H-pyrrol-3-yl]-4-methylquinoline], for which the EC50 worked out at 0.0061 µM at Ba/F3-Syk cells and 0.803 µM in experiment [1] (Mus musculus, BaF3, 48 h).

As to `Cc1ccnc2cc(-c3ccn(C4COC4)c3)cc(OC[C@@H]3CNCC(C)(C)O3)c12` [Compound 14.12, 5-{[(2S)-6,6-dimethylmorpholin-2-yl]methoxy}-4-methyl-7-[1-(oxetan-3-yl)-1H-pyrrol-3-yl]quinoline], the concentration for a half-maximal effect (EC50) is 0.0055 µM on Ba/F3-Syk cells and 0.867 µM in experiment [1] (Mus musculus, BaF3, 48 h).

For the compound `CC1(C)CNC[C@@H](COc2nc(-c3cnn(C(C)(C)C)c3)cc3nccc(C(F)(F)F)c23)O1` [Compound 14.13, 7-(1-tert-butyl-1H-pyrazol-4-yl)-5-{[(2S)-6,6-dimethylmorpholin-2-yl]methoxy}-4-(trifluoromethyl)-1,6-naphthyridine], the EC50 on Ba/F3-Syk cells stood at 0.02 µM; in experiment [1] (Mus musculus, BaF3, 48 h), 0.865 µM.
